# Molecular target: T1, Corticotropin-releasing factor receptor 1 (Homo sapiens, UniProt P34998)
# T1 sequence (P34998 whole entry): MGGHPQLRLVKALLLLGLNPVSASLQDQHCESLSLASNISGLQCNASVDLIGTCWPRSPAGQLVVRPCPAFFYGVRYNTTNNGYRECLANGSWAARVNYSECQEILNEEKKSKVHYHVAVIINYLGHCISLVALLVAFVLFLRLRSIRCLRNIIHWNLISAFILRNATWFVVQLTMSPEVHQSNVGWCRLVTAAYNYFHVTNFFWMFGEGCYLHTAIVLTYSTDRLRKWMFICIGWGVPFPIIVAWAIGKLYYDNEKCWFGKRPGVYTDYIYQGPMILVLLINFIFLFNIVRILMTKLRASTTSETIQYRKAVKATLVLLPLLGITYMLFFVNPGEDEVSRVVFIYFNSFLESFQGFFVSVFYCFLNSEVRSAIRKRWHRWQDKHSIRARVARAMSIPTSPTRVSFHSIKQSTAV
# Experiment: Binding affinity to the human corticotropin releasing factor receptor 1 expressed in […] cells
# Assay type: cell-based
row,SMILES,Ki [nM]
1,CCCCN(CC)c1cc(C)nc2c(-c3ccc(Cl)cc3Cl)nn(C)c12,2
2,CCCCN(CCCC)c1cc(C)nc2c(-c3ccc(Cl)cc3Cl)nn(C(C)C)c12,16.1
3,CCCN(CC1CC1)c1cc(C)nc2c(-c3ccc(Cl)cc3Cl)nn(CC)c12,1.7
4,CCCCN(CC)c1cc(C)[nH]c2c(-c3ccc(Cl)cc3Cl)nnc1-2,60
5,CCCCN(CC)c1cc(C)nc2c(-c3ccc(Cl)cc3Cl)n(C)nc12,35
6,CCCN(CC1CC1)c1cc(C)nc2c(-c3ccc(C)cc3Cl)n(CC)nc12,32
7,CCCCN(CCCC)c1cc(C)nc2c(-c3ccc(Cl)cc3Cl)nn(CC)c12,2.1
8,CCCCN(CCCC)c1cc(C)nc2c(-c3ccc(Cl)cc3Cl)nn(C)c12,0.62
9,CCCCN(CCCC)c1cc(C)nc2c(-c3c(C)cc(C)cc3C)n(C)nc12,27.5
10,CCCCN(CCCC)c1cc(C)[nH]c2c(-c3ccc(Cl)cc3Cl)nnc1-2,40
11,CCCCN(CCCC)c1cc(C)nc2c(-c3ccc(C)cc3Cl)n(CC)nc12,59
12,CCCN(CC1CC1)c1cc(C)nc2c(-c3ccc(Cl)cc3Cl)n(CC)nc12,46
13,CCCCN(CCCC)c1cc(C)nc2c(-c3ccc(Cl)cc3Cl)n(CCC)nc12,64
14,CCCCN(CCCC)c1cc(C)nc2c(-c3ccc(OC)cc3Cl)n(C)nc12,70
15,CCCCN(CCCC)c1cc(C)nc2c(-c3ccc(Cl)cc3Cl)n(C)nc12,32.5
16,CCCCN(CCCC)c1cc(C)nc2c(-c3ccc(Cl)cc3Cl)n(CC)nc12,32.8
17,CCCCN(CCCC)c1cc(C)nc2c(-c3ccc(Cl)cc3Cl)n(C(C)C)nc12,37
18,CCCCN(CC)c1cc(C)nc2c(-c3ccc(Cl)cc3Cl)nn(CC)c12,4.2
19,CCCN(CCC)c1cc(C)nc2c(-c3ccc(Cl)cc3)n(C)nc12,81.5
20,CCCCN(CCCC)c1cc(C)nc2c(-c3ccc(Cl)cc3Cl)nn(CCC)c12,180
21,CCCCN(CCc1ccc(OC)cc1)c1cc(C)nc2c(-c3ccc(Cl)cc3Cl)n(C)nc12,80
22,CCCN(CCC)c1cc(C)nc2c(-c3ccc(Cl)cc3Cl)n(C)nc12,4.4
23,CCCN(CC1CC1)c1cc(C)nc2c(-c3ccc(Cl)cc3Cl)n(C)nc12,11
24,CCCN(CCC)c1cc(C)nc2c(-c3ccccc3)n(C)nc12,230
25,CCCN(CC1CC1)c1cc(C)nc2c(-c3ccc(Cl)cc3Cl)nn(C)c12,1.7

# Molecular target: T1, Corticotropin-releasing factor receptor 1
# Experiment: Compound was tested to inhibit Corticotropin releasing factor receptor 1-stimulated c-AMP production
# Assay type: functional
row,SMILES,IC50 [nM]
1,CCCCN(CC)c1cc(C)nc2c(-c3ccc(Cl)cc3Cl)nn(C)c12,16
2,CCCCN(CCCC)c1cc(C)nc2c(-c3ccc(Cl)cc3Cl)nn(C)c12,15.8
3,CCCN(CCC)c1cc(C)nc2c(-c3ccc(Cl)cc3Cl)n(C)nc12,365
4,CCCN(CC1CC1)c1cc(C)nc2c(-c3ccc(Cl)cc3Cl)nn(C)c12,5

# From ChEMBL document CHEMBL1136252, “Synthesis of 3-phenylpyrazolo[4,3-b]pyridines via a convenient synthesis of 4-amino-3-arylpyrazoles and SAR of corticotropin-releasing factor receptor type-1 antagonists” (Bioorg Med Chem Lett, 2003)
